From patent US9606114B2, “Multivalent chelators containing a scaffold structure for modifying and organizing of target molecules” (JOHANN WOLFGANG GOETHE-UNIVERSITAT FRANKFURT AM MAIN, priority 2004, dated 2017)

Tests used:
ifnar2-H10 [1] = target: T1, ifnar2-H10 (Homo sapiens, UniProt P48551); assay: Fluorescence quantum yield of MCH-fluorophore conjugate after Ni(II) loading and protein binding; format: physicochemical
T1 construct: the extracellular domain of ifnar2 with a C-terminal deca-histidine-tag (ifnar2-H10)
T1 sequence (P48551 with tags, fused parts or gaps): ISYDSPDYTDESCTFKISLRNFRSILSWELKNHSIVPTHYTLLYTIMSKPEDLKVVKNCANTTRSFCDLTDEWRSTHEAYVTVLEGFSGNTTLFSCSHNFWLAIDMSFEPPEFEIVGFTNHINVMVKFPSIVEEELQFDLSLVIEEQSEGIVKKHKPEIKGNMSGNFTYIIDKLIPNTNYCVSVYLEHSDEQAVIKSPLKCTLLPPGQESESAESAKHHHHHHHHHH
Experimental: (§1) For a non-covalent fluorescence labeling of histidine-tagged proteins in solution conjugates of tris-NTA with three different fluorophores were synthesized: Oregon Green 488, ATTO 565, FEW-S0387 (FIG. 17).
(§2) After loading with Ni(II)-ions ifnar2-H10 was added to these conjugates and the excess conjugate was separated through gel filtration.
(§3) The different states of the MCH-fluorophore-conjugate could be followed by fluorescence quantum yield. (FIG. 18B). After loading of the chelator-groups with Ni(II)-ions a marked reduction of the fluorescence to about 50% was observed, and after binding to the protein to about 40%.

ifnar2-H10 [2] = target: T1, ifnar2-H10; assay: Immobilization of histidine-tagged protein on chelator-modified surface, detected by RIfS; format: binding; settings: immobilized on tris-NTA modified surface
Excerpt: The interaction of histidine-tagged proteins with the surfaces as produced in example 1 was characterized in detail by means of reflectometric interference spectroscopy (RIfS). Using this method, the binding of proteins to surfaces can be quantified in real time, as described in Piehler and Schreiber 2001 (Piehler J, Schreiber G. 2001. Fast transient cytokine-receptor interactions monitored in real time by reflectometric interference spectroscopy. Anal. Biochem. 289(2):173-186.)
The immobilization of the extracellular domain of ifnar2 with a C-terminal deca-histidine-tag (ifnar2-H10) to a tris-NTA modified surface (FIG. 7A) is shown in FIG. 7B. Whereas no binding was detectable before loading of the chelator coupled to the surface with Ni(II)-ions, thereafter an overall binding of about 1.5 ng/mm^2 protein was observed that also maintained stably immobilized during rinsing. Nevertheless, this protein could be removed quantitatively with 200 mM imidazole as competitor.
The functionality of the immobilized protein was examined through the binding of the ligand interferon α2 (IFNα2) (FIG. 8).

ifnar2-H10 [3] = target: T1, ifnar2-H10; assay: Lateral diffusion of protein anchored via bis-NTA lipid to solid-supported lipid double layer (FRAP); settings: membrane-anchored via bis-NTA lipid in stearoyl-oleoyl-phosphatidylcholine double layer
Excerpt: For an attachment of proteins to lipid membranes, a lipid-analogue conjugate of bis-NTA was synthesized that is shown in FIG. 15A.
This lipid was incorporated into unilaminar vesicles of stearoyl-oleoyl-phosphatidylcholine that spontaneously form a fluid solid-supported lipid-double layer on glass surfaces (FIG. 15B). ifnar2-H10 could be specifically anchored at these membranes, whereby the binding activity was completely preserved (FIG. 15B). The lateral diffusion of the membrane-anchored ifnar2-H10 was analyzed through fluorescence-bleaching (fluorescence recovery after photobleaching, FRAP) (FIG. 16). Thereby, a diffusion constant of 1 μm^2/s was determined.

ifnar2-H10 [4] = assay: Fluorescence quantum yield of MCH-fluorophore conjugate after Ni(II) loading and protein binding; format: physicochemical; settings: relative to unloaded conjugate
Experimental: as §1, §2, §3

ATTO 565-Tris-NTA
reduction of fluorescence compared with Oregon Green conjugate (ifnar2-H10 [1]; Ni(II) loading and protein binding): even more pronounced

ifnar2-H10: extracellular domain of ifnar2 (type I interferon-receptor 2) with a C-terminal deca-histidine-tag
immobilized ifnar2-H10 active (binding of ligand IFNα2) (ifnar2-H10 [2]): more than 90% | diffusion constant (ifnar2-H10 [3]): 1 μm^2/s

OG 488-Tris-NTA [tris-NTA-Oregon Green]
fluorescence after binding to the protein (ifnar2-H10 [1]; Ni(II)-loaded conjugate bound to ifnar2-H10): about 40% | fluorescence after loading of the chelator-groups with Ni(II)-ions (ifnar2-H10 [4]): about 50%
